From patent US11096985B2, “Antimicrobial peptides, their variants and uses” (priority 2015, dated 2021)
Where a SMILES comes first, the peptide text is derived from it. [ ]: non-standard residue; d: D form.

Assays:
[1] = test system: clinical strains of C. parapsilosis; test: MIC, clinical yeast strains, C. parapsilosis; type: cell-based, Candida parapsilosis; parameters: unit: μg/ml
Procedure, shortened: (§1)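 MH broth; 5.0×10^5 cfu/ml; peptides 0.125–128 μg/ml; 37° C., 20–24 h; visual no-growth endpoint. Fungal MICs in potato dextrose broth.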

[2] = test system: clinical strains of Serratia marcescens; test: MIC, clinical strains of Serratia marcescens; type: cell-based; parameters: unit: µg/mL; conditions: microdilution, Muller Hinton broth-cation adjusted, 0.02% BSA, 0.2% acetic acid
Procedure, shortened: as §1

[3] = test system: clinical strains of C. quillermondiae; test: MIC, clinical yeast strains, C. quillermondiae; type: cell-based; conditions: C. quillermondiae clinical yeast strain 1
Procedure, shortened: as §1

[4] = test system: clinical strains of Enterobacter cloacae; test: MIC, clinical strains of Enterobacter cloacae; type: cell-based; parameters: unit: μg/ml; conditions: microdilution, Muller Hinton broth-cation adjusted, 0.02% BSA, 0.2% acetic acid
Procedure, shortened: as §1

[5] = test system: clinical strains of Candida albicans; test: MIC, clinical yeast strains, Candida albicans; type: cell-based; parameters: unit: μg/ml
Procedure, shortened: as §1

[6] = test system: clinical strains of Acinetobacter baumannii; test: MIC, clinical strains of Acinetobacter baumannii; type: cell-based; conditions: microdilution, Muller Hinton broth-cation adjusted, 0.02% BSA, 0.2% acetic acid
Procedure, shortened: as §1

[7] = test system: clinical strains of Pseudomonas aeruginosa; test: MIC, clinical strains of P. aeruginosa; type: cell-based; parameters: unit: μg/ml; conditions: microdilution, Muller Hinton broth-cation adjusted, 0.02% BSA, 0.2% acetic acid
Procedure, shortened: as §1

[8] = test system: clinical strains of Acinetobacter johnsonii; type: cell-based; conditions: Acinetobacter johnsonii clinical strain 1; microdilution, Muller Hinton broth-cation adjusted, 0.02% BSA, 0.2% acetic acid
Procedure, shortened: as §1

[9] = test system: clinical strains of C. glabrata; test: MIC, clinical yeast strains, C. glabrata; type: cell-based, Candida glabrata; parameters: unit: μg/ml
Procedure, shortened: as §1

[10] = test system: clinical strains of Staphylococcus aureus; test: MIC, clinical strains of S. aureus; type: cell-based; parameters: unit: μg/ml; conditions: microdilution, Muller Hinton broth-cation adjusted, 0.02% BSA, 0.2% acetic acid
Procedure, shortened: as §1

[11] = test system: clinical strains of Streptococcus pneumoniae; test: MIC, clinical strains of Streptococcus pneumoniae; type: cell-based; parameters: unit: µg/mL; conditions: microdilution, Muller Hinton broth-cation adjusted, 0.02% BSA, 0.2% acetic acid
Procedure, shortened: as §1

[12] = test system: clinical strains of Proteus mirabilis; test: MIC, clinical strains of Proteus mirabilis; type: cell-based; parameters: unit: µg/mL; conditions: microdilution, Muller Hinton broth-cation adjusted, 0.02% BSA, 0.2% acetic acid
Procedure, shortened: as §1

[13] = test system: clinical strains of Klebsiella pneumoniae; test: MIC, clinical strains of K. pneumoniae; type: cell-based; parameters: unit: μg/ml; conditions: microdilution, Muller Hinton broth-cation adjusted, 0.02% BSA, 0.2% acetic acid
Procedure, shortened: as §1

[14] = test system: clinical strains of Escherichia coli; test: MIC, clinical strains of E. coli; type: cell-based; parameters: unit: μg/ml; conditions: microdilution, Muller Hinton broth-cation adjusted, 0.02% BSA, 0.2% acetic acid
Procedure, shortened: as §1

CC(C)C[C@@H](NC(=O)[C@H](N)CCCNC(=N)N)C(=O)N[C@H](CCCCN)C(=O)N[C@H](Cc1c[nH]c2ccccc12)C(=O)N[C@H](Cc1ccccc1)C(=O)N[C@H](CC(C)C)C(=O)N[C@H](CC(C)C)C(=O)N[C@H](Cc1ccccc1)C(=O)N[C@H](CCCNC(=N)N)C(=O)N[C@H](CCCCN)C(=O)N[C@H](CCCNC(=N)N)C(=O)O [Chain308D] (H-[dR][dL][dK][dW][dF][dL][dL][dF][dR][dK][dR]-OH)
Minimum inhibitory concentration ([1]; C. parapsilosis clinical yeast strain 1): 8
Minimum inhibitory concentration ([1]; C. parapsilosis clinical yeast strain 2): 8
Minimum inhibitory concentration ([1]; C. parapsilosis clinical yeast strain 3): 8
Minimum inhibitory concentration ([1]; C. parapsilosis clinical yeast strain 4): 4
Minimum inhibitory concentration ([2]; Serratia marcescens clinical strain 1): 128
Minimum inhibitory concentration ([2]; Serratia marcescens clinical strain 2): 128
Minimum inhibitory concentration ([2]; Serratia marcescens clinical strain 3): 64
Minimum inhibitory concentration ([2]; Serratia marcescens clinical strain 4): >128
Minimum inhibitory concentration ([2]; Serratia marcescens clinical strain 5): 128
Minimum inhibitory concentration [3]: 4
Minimum inhibitory concentration ([4]; Enterobacter cloacae clinical strain 1): 2
Minimum inhibitory concentration ([4]; Enterobacter cloacae clinical strain 2): 2
Minimum inhibitory concentration ([4]; Enterobacter cloacae clinical strain 3): 2
Minimum inhibitory concentration ([4]; Enterobacter cloacae clinical strain 4): 2
Minimum inhibitory concentration ([4]; Enterobacter cloacae clinical strain 5): 2
Minimum inhibitory concentration ([5]; Candida albicans clinical yeast strain 1): 16
Minimum inhibitory concentration ([5]; Candida albicans clinical yeast strain 2): 16
Minimum inhibitory concentration ([5]; Candida albicans clinical yeast strain 3): 16
Minimum inhibitory concentration ([5]; Candida albicans clinical yeast strain 4): 16
Minimum inhibitory concentration ([5]; Candida albicans clinical yeast strain 5): 16
Minimum inhibitory concentration ([6]; Acinetobacter baumannii clinical strain 1): 4
Minimum inhibitory concentration ([6]; Acinetobacter baumannii clinical strain 2): 4
Minimum inhibitory concentration ([6]; Acinetobacter baumannii clinical strain 3): 4
Minimum inhibitory concentration ([6]; Acinetobacter baumannii clinical strain 4): 2
Minimum inhibitory concentration ([6]; Acinetobacter baumannii clinical strain 5): 2
Minimum inhibitory concentration ([7]; Pseudomonas aeruginosa clinical strain 1): 8
Minimum inhibitory concentration ([7]; Pseudomonas aeruginosa clinical strain 2): 8
Minimum inhibitory concentration ([7]; Pseudomonas aeruginosa clinical strain 3): 4
Minimum inhibitory concentration ([7]; Pseudomonas aeruginosa clinical strain 4): 4
Minimum inhibitory concentration ([7]; Pseudomonas aeruginosa clinical strain 5): 4
Minimum inhibitory concentration [8]: 4
Minimum inhibitory concentration ([9]; C. glabrata clinical yeast strain 1): 16
Minimum inhibitory concentration ([9]; C. glabrata clinical yeast strain 2): 16
Minimum inhibitory concentration ([9]; C. glabrata clinical yeast strain 3): 16
Minimum inhibitory concentration ([9]; C. glabrata clinical yeast strain 4): 16
Minimum inhibitory concentration ([10]; Staphylococcus aureus clinical strain 1): 1
Minimum inhibitory concentration ([10]; Staphylococcus aureus clinical strain 2): 2
Minimum inhibitory concentration ([10]; Staphylococcus aureus clinical strain 3): 1
Minimum inhibitory concentration ([10]; Staphylococcus aureus clinical strain 4): 2
Minimum inhibitory concentration ([10]; Staphylococcus aureus clinical strain 5): 2
Minimum inhibitory concentration ([11]; Streptococcus pneumoniae clinical strain 1): 8
Minimum inhibitory concentration ([11]; Streptococcus pneumoniae clinical strain 2): 4
Minimum inhibitory concentration ([11]; Streptococcus pneumoniae clinical strain 3): 8
Minimum inhibitory concentration ([11]; Streptococcus pneumoniae clinical strain 4): 2
Minimum inhibitory concentration ([11]; Streptococcus pneumoniae clinical strain 5): 4
Minimum inhibitory concentration ([12]; Proteus mirabilis clinical strain 1): >128
Minimum inhibitory concentration ([12]; Proteus mirabilis clinical strain 2): 32
Minimum inhibitory concentration ([12]; Proteus mirabilis clinical strain 3): 128
Minimum inhibitory concentration ([12]; Proteus mirabilis clinical strain 4): >128
Minimum inhibitory concentration ([12]; Proteus mirabilis clinical strain 5): >128
Minimum inhibitory concentration ([13]; Klebsiella pneumoniae clinical strain 1): 4
Minimum inhibitory concentration ([13]; Klebsiella pneumoniae clinical strain 2): 4
Minimum inhibitory concentration ([13]; Klebsiella pneumoniae clinical strain 3): 4
Minimum inhibitory concentration ([13]; Klebsiella pneumoniae clinical strain 4): 4
Minimum inhibitory concentration ([13]; Klebsiella pneumoniae clinical strain 5): 4
Minimum inhibitory concentration ([14]; Escherichia coli clinical strain 1): 1
Minimum inhibitory concentration ([14]; Escherichia coli clinical strain 2): 0.5
Minimum inhibitory concentration ([14]; Escherichia coli clinical strain 3): 1
Minimum inhibitory concentration ([14]; Escherichia coli clinical strain 4): 1
Minimum inhibitory concentration ([14]; Escherichia coli clinical strain 5): 1
